Test results as given in patent US20050159599A1, “Cyclic compound, process for producing the same, and pest control agent” (priority 2002, published 2005).

Key:
Format in all cases: in vivo
Plutella xylostella = experiment: Insecticidal effect for Plutella xylostella by immersion treatment of host crop (Test Example 1); details: cabbage leaf dipped, second-instar larvae of Plutella xylostella, fifth day after; for rate of dead pests (%): 100 ppm; for pest or weed control at 100 ppm: foliar, 120 h, read-out: rate of dead pests (%)
Procedure: Insecticidal Effect for Plutella xylostella by Immersion Treatment of Host Crop One true leaf of 7 to 8-leave stage cabbage was cut off and dipped in a pesticidal solution for a few seconds, which was prepared by dissolving 5 mg of test compound (represented by the compound Nos. in the above Examples) in 0.5 ml of acetone containing Tween 20 (trade name) and then diluting it to the prescribed concentration (100 ppm) with Dain (trade name, sticker) water diluted 5000-fold. After drying the pesticidal solution, the leaf was put into an ice cream cup (180 ml), and ten second-instar larvae of Plutella xylostella were set free therein. The cup was left in a temperature-controlled breeding room (24° C.). On the fifth day after, the number of surviving Plutella xylostella was examined. The rate of dead pests was calculated by the following formula. rate of dead pests (%)=(number of dead pests/number of test pests)×100

Spodoptera litura [1] = experiment: Insecticidal effect for Spodoptera litura by immersion treatment of host crop root (Test Example 4); details: 25 ppm, soybean root immersion 5 days, second-instar larvae of Spodoptera litura, fifth day after; for pest or weed control at 25 ppm: 120 h, read-out: rate of dead pests (%)
Procedure: Insecticidal Effect for Spodoptera litura by Immersion Treatment of Host Crop Root Roots of primary leaves developing stage soybean was washed with tap water to remove soil, and then immersed in a pesticidal solution which was prepared by dissolving 5 mg of test compound (represented by the compound Nos. in the above Examples) in 0.5 ml of acetone containing Tween 20 ([…]) with ion-exchange water, and which was filled in a light-shielded Erlenmeyer flask (100 ml). On the fifth day after immersion of root, two primary leaves were cut off, and the leaves were put into an ice cream cup (180 ml). Ten second-instar larvae of Spodoptera litura were set free therein, and the cup was left in a temperature-controlled breeding room (25° C.). On the fifth day after, the number of surviving Spodoptera litura was examined. The rate of dead pests was calculated by the following formula. rate of dead pests (%)=(number of dead pests/number of test pests)×100

Spodoptera litura [2] = experiment: Insecticidal effect for Spodoptera litura by spraying treatment to host crop (Test Example 2); details: 100 ppm, sprayed on soybean, third-instar larvae of Spodoptera litura, fifth day after; for pest or weed control at 100 ppm: 120 h, read-out: rate of dead pests (%)
Procedure: Insecticidal Effect for Spodoptera litura by Spraying Treatment to Host Crop
A pesticidal solution, which was prepared by dissolving 5 mg of test compound (represented by the compound Nos. in the above Examples) in 0.5-ml of acetone containing Tween 20 (trade name) and then diluting it to the prescribed concentration (100 ppm) with Dain (trade name, sticker) water diluted 5000-fold, was sprayed on a soybean whose primary leaves had developed completely with spray gun in the amounts wherein the pesticidal solution dripped. After drying the pesticidal solution, two primary leaves were cut off. The leaves were put into an ice cream cup (180 ml), and ten third-instar larvae of Spodoptera litura were set free therein. The cup was left in a temperature-controlled breeding room (25° C.). On the fifth day after, the number of surviving Spodoptera litura was examined. The rate of dead pests was calculated by the following formula. rate of dead pests (%)=(number of dead pests/number of test pests)×100

O=C(c1c(F)cccc1F)N1COCN(c2ccc([S+]([O-])C(F)(F)C(F)F)cc2Cl)C1=O (stereo not drawn) [I-17]
rate of dead pests (%) (Plutella xylostella): 100% | rate of dead pests (%) (Spodoptera litura [1]): 100% | rate of dead pests (%) (Spodoptera litura [2]): 100%

O=C(c1c(F)cccc1F)N1COCN(c2ccc(SC(F)(F)C(F)F)cc2F)C1=O [I-22]
rate of dead pests (%) (Plutella xylostella): 100% | rate of dead pests (%) (Spodoptera litura [2]): 100%

O=C(c1c(F)cccc1F)N1COCN(c2ccc(S(=O)(=O)C(F)F)cc2F)C1=O [I-43, 3-(2,6-difluorobenzoyl)-5-[4-(difluoromethylsulfonyl)-2-fluorophenyl]tetrahydro-4H-1,3,5-oxadiazin-4-one]
pest or weed control at 100 ppm (Plutella xylostella): 100% | pest or weed control at 25 ppm (Spodoptera litura [1]): 100% | pest or weed control at 100 ppm (Spodoptera litura [2]): 100%

O=C(c1c(F)cccc1F)N1COCN(c2ccc([S+]([O-])C(F)(F)F)c(F)c2F)C1=O (stereo not drawn) [I-108]
rate of dead pests (%) (Plutella xylostella): 100%

O=C(c1c(F)cccc1F)N1COCN(c2c(F)cc(SC(F)(F)F)c(F)c2F)C1=O [I-116]
rate of dead pests (%) (Plutella xylostella): 100% | rate of dead pests (%) (Spodoptera litura [2]): 100%

C[S+]([O-])c1ccc(N2COCN(C(=O)c3c(F)cccc3Cl)C2=O)c(F)c1 (stereo not drawn) [I-206]
rate of dead pests (%) (Plutella xylostella): 100% | rate of dead pests (%) (Spodoptera litura [1]): 100%

O=C(c1c(F)cccc1Cl)N1COCN(c2ccc(SC(F)F)cc2F)C1=O [I-218]
rate of dead pests (%) (Plutella xylostella): 100% | rate of dead pests (%) (Spodoptera litura [1]): 100% | rate of dead pests (%) (Spodoptera litura [2]): 100%

O=C(c1c(F)cccc1Cl)N1COCN(c2ccc(SC(F)(F)F)cc2F)C1=O [I-221]
rate of dead pests (%) (Plutella xylostella): 100% | rate of dead pests (%) (Spodoptera litura [1]): 100% | rate of dead pests (%) (Spodoptera litura [2]): 100%

O=C(c1c(F)cccc1Cl)N1COCN(c2cc(F)c([S+]([O-])C(F)(F)F)cc2F)C1=O (stereo not drawn) [I-288]
rate of dead pests (%) (Spodoptera litura [1]): 100% | rate of dead pests (%) (Spodoptera litura [2]): 100%

O=C(c1c(F)cccc1Cl)N1COCN(c2ccc([S+]([O-])C(F)(F)C(F)(F)F)cc2F)C1=O (stereo not drawn) [I-306]
rate of dead pests (%) (Spodoptera litura [1]): 100% | rate of dead pests (%) (Spodoptera litura [2]): 100%

O=C(c1c(F)cccc1Cl)N1COCN(c2ccc(S(=O)(=O)C(F)(F)C(F)(F)F)cc2F)C1=O [I-307]
rate of dead pests (%) (Spodoptera litura [1]): 90% | rate of dead pests (%) (Spodoptera litura [2]): 100%

O=C(c1c(Cl)cccc1Cl)N1COCN(c2ccc(SC(F)(F)F)cc2F)C1=O [I-398]
rate of dead pests (%) (Plutella xylostella): 100% | rate of dead pests (%) (Spodoptera litura [2]): 100%

O=C(c1c(Cl)cccc1Cl)N1COCN(c2ccc([S+]([O-])C(F)(F)F)cc2F)C1=O (stereo not drawn) [I-399]
rate of dead pests (%) (Spodoptera litura [1]): 100% | rate of dead pests (%) (Spodoptera litura [2]): 100%

O=C(c1c(F)cccc1F)N1C[S+]([O-])CN(c2cc(Cl)c(F)c(Cl)c2F)C1=O (stereo not drawn) [II-11]
rate of dead pests (%) (Spodoptera litura [1]): 100% | rate of dead pests (%) (Spodoptera litura [2]): 100%

O=C(c1c(F)cccc1F)N1CSCN(c2ccc(SC(F)(F)C(F)Cl)cc2F)C1=O (stereo not drawn) [II-19]
rate of dead pests (%) (Plutella xylostella): 100%

O=C(c1c(F)cccc1F)N1CSCN(c2ccc([S+]([O-])C(F)(F)C(F)Cl)cc2F)C1=O (stereo not drawn) [II-22]
rate of dead pests (%) (Plutella xylostella): 100%

O=C(c1c(F)cccc1F)N1CN(c2ccccc2)CN(c2ccc(Cl)cc2)C1=O [III-2, 1-(4-chlorophenyl)-3-(2,6-difluorobenzoyl)-5-phenyltetrahydro-1,3,5-triazin-2(1H)-one]
pest or weed control at 25 ppm (Spodoptera litura [1]): 90% | pest or weed control at 100 ppm (Spodoptera litura [2]): 100%

C#CCN1CN(C(=O)c2c(F)cccc2F)C(=O)N(c2ccc(Cl)cc2)C1 [III-8]
rate of dead pests (%) (Spodoptera litura [1]): 100% | rate of dead pests (%) (Spodoptera litura [2]): 100%

CS(=O)(=O)N1CN(C(=O)c2c(F)cccc2F)C(=O)N(c2ccc(Cl)cc2)C1 [III-12, 1-(4-chlorophenyl)-3-(2,6-difluorobenzoyl)-5-methanesulfonyltetrahydro-1,3,5-triazin-2(1H)-one]
pest or weed control at 25 ppm (Spodoptera litura [1]): 100% | pest or weed control at 100 ppm (Spodoptera litura [2]): 100%

COC(=O)N1CN(C(=O)c2c(F)cccc2F)C(=O)N(c2ccc(Cl)cc2)C1 [III-13]
rate of dead pests (%) (Spodoptera litura [1]): 100% | rate of dead pests (%) (Spodoptera litura [2]): 100%

C#CCN1CN(C(=O)c2c(F)cccc2F)C(=O)N(c2ccc(Oc3ccc(C(F)(F)F)cc3Cl)cc2F)C1 [III-23]
rate of dead pests (%) (Plutella xylostella): 100% | rate of dead pests (%) (Spodoptera litura [2]): 100%

CS(=O)(=O)N1CN(C(=O)c2c(F)cccc2F)C(=O)N(c2ccc(Oc3ccc(C(F)(F)F)cc3Cl)cc2F)C1 [III-26]
rate of dead pests (%) (Plutella xylostella): 100% | rate of dead pests (%) (Spodoptera litura [2]): 100%

COC(=O)N1CN(C(=O)c2c(F)cccc2F)C(=O)N(c2ccc(Oc3ccc(C(F)(F)F)cc3Cl)cc2F)C1 [III-28]
rate of dead pests (%) (Plutella xylostella): 100% | rate of dead pests (%) (Spodoptera litura [2]): 100%

CN(C)C(=O)C(=O)N1CN(C(=O)c2c(F)cccc2F)C(=O)N(c2ccc(Oc3ccc(C(F)(F)F)cc3Cl)cc2F)C1 [III-43, 2-[3-[4-(2-chloro-4-trifluoromethylphenoxy)-2-fluorophenyl]-5-(2,6-difluorobenzoyl)hexahydro-4-oxo-1,3,5-triazin-1-yl]-N,N-dimethyl-2-oxoacetamide]
pest or weed control at 100 ppm (Plutella xylostella): 100% | pest or weed control at 100 ppm (Spodoptera litura [2]): 100%

O=C(NOCc1ccccc1)C(=O)N1CN(C(=O)c2c(F)cccc2F)C(=O)N(c2ccc(Oc3ccc(C(F)(F)F)cc3Cl)cc2F)C1 [III-50]
rate of dead pests (%) (Plutella xylostella): 100% | rate of dead pests (%) (Spodoptera litura [2]): 100%

O=C(c1c(F)cccc1F)N1CN(c2ccccc2)CN(c2cc(Cl)c(F)c(Cl)c2F)C1=O [III-54]
rate of dead pests (%) (Plutella xylostella): 100% | rate of dead pests (%) (Spodoptera litura [2]): 100%

O=C(OCc1ccccc1)N1CN(C(=O)c2c(F)cccc2F)C(=O)N(c2cc(Cl)c(F)c(Cl)c2F)C1 [III-55, 5-benzyloxycarbonyl-1-(3,5-dichloro-2,4-difluorophenyl)-3-(2,6-difluorobenzoyl)tetrahydro-1,3,5-triazin-2(1H)-one]
pest or weed control at 100 ppm (Plutella xylostella): 100% | pest or weed control at 100 ppm (Spodoptera litura [2]): 100%

C=CCN1CN(C(=O)c2c(F)cccc2F)C(=O)N(c2cc(Cl)c(F)c(Cl)c2F)C1 [III-56]
rate of dead pests (%) (Plutella xylostella): 100% | rate of dead pests (%) (Spodoptera litura [2]): 100%

C#CCN1CN(C(=O)c2c(F)cccc2F)C(=O)N(c2cc(Cl)c(F)c(Cl)c2F)C1 [III-57]
rate of dead pests (%) (Plutella xylostella): 100% | rate of dead pests (%) (Spodoptera litura [2]): 100%

O=C(c1c(F)cccc1F)N1CN(Cc2ccccc2)CN(c2cc(Cl)c(F)c(Cl)c2F)C1=O [III-60]
rate of dead pests (%) (Plutella xylostella): 100% | rate of dead pests (%) (Spodoptera litura [2]): 100%

COC(=O)N1CN(C(=O)c2c(F)cccc2F)C(=O)N(c2cc(Cl)c(F)c(Cl)c2F)C1 [III-61]
rate of dead pests (%) (Plutella xylostella): 100% | rate of dead pests (%) (Spodoptera litura [1]): 100%

COC(=O)SN1CN(C(=O)c2c(F)cccc2F)C(=O)N(c2cc(Cl)c(F)c(Cl)c2F)C1 [III-62]
rate of dead pests (%) (Plutella xylostella): 100% | rate of dead pests (%) (Spodoptera litura [2]): 100%

Cc1ccc(S(=O)(=O)N2CN(C(=O)c3c(F)cccc3F)C(=O)N(c3cc(Cl)c(F)c(Cl)c3F)C2)cc1 [III-63]
rate of dead pests (%) (Plutella xylostella): 100% | rate of dead pests (%) (Spodoptera litura [2]): 100%

O=C(OCc1ccccc1)N1CN(C(=O)c2c(F)cccc2F)C(=O)N(c2cc(Cl)c(OC(F)(F)C(F)C(F)(F)F)cc2Cl)C1 (stereo not drawn) [III-70]
rate of dead pests (%) (Plutella xylostella): 100% | rate of dead pests (%) (Spodoptera litura [2]): 100%

O=C(c1c(F)cccc1F)N1CNCN(c2cc(Cl)c(OC(F)(F)C(F)C(F)(F)F)cc2Cl)C1=O (stereo not drawn) [III-71]
rate of dead pests (%) (Plutella xylostella): 100% | rate of dead pests (%) (Spodoptera litura [2]): 100%

COC(=O)C(=O)N1CN(C(=O)c2c(F)cccc2F)C(=O)N(c2cc(Cl)c(OC(F)(F)C(F)C(F)(F)F)cc2Cl)C1 (stereo not drawn) [III-72]
rate of dead pests (%) (Plutella xylostella): 100% | rate of dead pests (%) (Spodoptera litura [2]): 100%

O=C(OCc1ccccc1)N1CN(C(=O)c2c(F)cccc2F)C(=O)N(c2ccc(SC(F)(F)C(F)Cl)cc2F)C1 (stereo not drawn) [III-77]
rate of dead pests (%) (Plutella xylostella): 100% | rate of dead pests (%) (Spodoptera litura [2]): 100%

CN1CN(C(=O)c2c(F)cccc2F)C(=O)N(c2ccc(S(=O)(=O)C(F)F)cc2F)C1 [III-156, 1-(2,6-difluorobenzoyl)-3-[4-(difluoromethylsulfonyl)-2-fluorophenyl]-5-methyltetrahydro-1,3,5-triazin-2 (1H)-one]
pest or weed control at 100 ppm (Plutella xylostella): 100% | pest or weed control at 100 ppm (Spodoptera litura [2]): 100%

O=C(c1c(F)cccc1F)N1CN=CN(c2ccc(Cl)cc2)C1=O [V-1]
rate of dead pests (%) (Spodoptera litura [1]): 100% | rate of dead pests (%) (Spodoptera litura [2]): 100%

O=C(c1c(F)cccc1F)N1CN=CN(c2ccc(Oc3ccc(C(F)(F)F)cc3Cl)cc2F)C1=O [V-3]
rate of dead pests (%) (Plutella xylostella): 100% | rate of dead pests (%) (Spodoptera litura [2]): 100%
